Source: US5104980A, “Chromogenic dibenzoxazepinone and dibenzothiazepinone enzyme substrates” (Miles Inc., priority 1989, dated 1992)

Tested on: β-galactosidase
Experiment: cleavage of the chromogenic substrate by β-galactosidase in 50 mM phosphate buffer
Assay type: biochemical
Settings: 50 mM phosphate buffer at pH 7.4 containing 5 mM MgCl2; in the presence of β-galactosidase
Protocol: When dissolved in 50 mM phosphate buffer at pH 7.4 containing 5 mM magnesium chloride (MgCl2) compound (23)+(24) (mixture) had λmax of 454 nm (^ε =22,000) and 344 nm (^ε =14,000).

8-β-D-Galactopyranosyloxy-11-methyl-11H-dibenz[b,e] [1,4]oxazepin-1-one (23) and 2-β-D-galactopyranosyloxy-11-methyl-11H-dibenz[b,e][1,4]oxazepin-8-one (24) [(23)+(24)]
Km: 75 µM | rate (Kcat) of cleavage of the substrate to (20): 1.32×10^4 mol. min^-1 /mol. active site
